# Species on record: Rattus norvegicus
# Assay: Open TG-GATES - Regimen: Single
# Type: toxicity, organism-based, Sprague-Dawley
# Set-up: regimen Single, gender Male, age 6 weeks
# Details: in vivo, po, 300 mg/kg, route gavage, dose level Middle; for APTT / Bas / Eos / Fbg / Hb / Ht / Lym / MCH / MCHC / MCV / Mono / Neu / PT / Plat / RBC / Ret / WBC: tissue Blood; for KIDNEY_L / KIDNEY_R / KIDNEY_TOTAL: tissue Kidney; for LIVER: tissue Liver; for A/G / ALP / ALT / AST / BUN / CRE / Ca / Cl / DBIL / GLC / IP / K / LDH / Na / PL / RALB / TBIL / TC / TG / TP / gamma-GTP: tissue Plasma
smiles,measurement,setting,value
COc1ccc(Cl)cc1C(=O)NCCc1ccc(S(=O)(=O)NC(=O)NC2CCCCC2)cc1 [GLYBURIDE],TERMINAL_BW,3 h,217.4 g
same,APTT,3 h,18.5 s
same,Bas,3 h,0%
same,Eos,3 h,1%
same,Fbg,3 h,239 mg/dL
same,Hb,3 h,13.3 g/dL
same,Ht,3 h,40.4%
same,Lym,3 h,72%
same,MCH,3 h,20.3 pg
same,MCHC,3 h,32.9%
same,MCV,3 h,61.7 fL
same,Mono,3 h,2.6%
same,Neu,3 h,23.8%
same,PT,3 h,12.6 s
same,Plat,3 h,139.4 x10_4/uL
same,RBC,3 h,655.2 x10_4/ul
same,Ret,3 h,8.6%
same,WBC,3 h,79 x10_2/uL
same,KIDNEY_L,3 h,1 g
same,KIDNEY_R,3 h,1 g
same,KIDNEY_TOTAL,3 h,1.9 g
same,LIVER,3 h,9.7 g
same,A/G,3 h,1.5
same,ALP,3 h,1040 IU/L
same,ALT,3 h,46.4 IU/L
same,AST,3 h,70.8 IU/L
same,BUN,3 h,12.2 mg/dL
same,CRE,3 h,0.3 mg/dL
same,Ca,3 h,10.8 mg/dL
same,Cl,3 h,103.6 meq/L
same,DBIL,3 h,0.1 mg/dL
same,GLC,3 h,136.4 mg/dL
same,IP,3 h,8.7 mg/dL
same,K,3 h,3.7 meq/L
same,LDH,3 h,143.8 IU/L
same,Na,3 h,141.2 meq/L
same,PL,3 h,165.8 mg/dL
same,RALB,3 h,3.5 g/dL
same,TBIL,3 h,0.2 mg/dL
same,TC,3 h,82.4 mg/dL
same,TG,3 h,88 mg/dL
same,TP,3 h,5.7 g/dL
same,gamma-GTP,3 h,1 IU/L
same,TERMINAL_BW,6 h,216.4 g
same,APTT,6 h,18.7 s
same,Bas,6 h,0%
same,Eos,6 h,0.8%
same,Fbg,6 h,215.8 mg/dL
same,Hb,6 h,13.4 g/dL
same,Ht,6 h,41%
same,Lym,6 h,74.4%
same,MCH,6 h,20.7 pg
same,MCHC,6 h,32.6%
same,MCV,6 h,63.6 fL
same,Mono,6 h,3%
same,Neu,6 h,21%
same,PT,6 h,12.9 s
same,Plat,6 h,123.3 x10_4/uL
same,RBC,6 h,645.6 x10_4/ul
same,Ret,6 h,8.3%
same,WBC,6 h,114.4 x10_2/uL
same,KIDNEY_L,6 h,1 g
same,KIDNEY_R,6 h,0.9 g
same,KIDNEY_TOTAL,6 h,1.9 g
same,LIVER,6 h,9.6 g
same,A/G,6 h,1.6
same,ALP,6 h,903.6 IU/L
same,ALT,6 h,33.6 IU/L
same,AST,6 h,62.2 IU/L
same,BUN,6 h,11.8 mg/dL
same,CRE,6 h,0.3 mg/dL
same,Ca,6 h,10.8 mg/dL
same,Cl,6 h,103.6 meq/L
same,DBIL,6 h,0.1 mg/dL
same,GLC,6 h,161.4 mg/dL
same,IP,6 h,9 mg/dL
same,K,6 h,3.8 meq/L
same,LDH,6 h,134.8 IU/L
same,Na,6 h,140.8 meq/L
same,PL,6 h,139.2 mg/dL
same,RALB,6 h,3.4 g/dL
same,TBIL,6 h,0.2 mg/dL
same,TC,6 h,72.4 mg/dL
same,TG,6 h,69.4 mg/dL
same,TP,6 h,5.7 g/dL
same,gamma-GTP,6 h,0.8 IU/L
same,TERMINAL_BW,9 h,213.5 g
same,APTT,9 h,19.3 s
same,Bas,9 h,0%
same,Eos,9 h,1%
same,Fbg,9 h,234.8 mg/dL
same,Hb,9 h,13.4 g/dL
same,Ht,9 h,41%
same,Lym,9 h,67.8%
same,MCH,9 h,20.7 pg
same,MCHC,9 h,32.8%
same,MCV,9 h,63.2 fL
same,Mono,9 h,3%
same,Neu,9 h,27.4%
same,PT,9 h,12.6 s
same,Plat,9 h,119.4 x10_4/uL
same,RBC,9 h,648.6 x10_4/ul
same,Ret,9 h,7.9%
same,WBC,9 h,119.6 x10_2/uL
same,KIDNEY_L,9 h,0.9 g
same,KIDNEY_R,9 h,1 g
same,KIDNEY_TOTAL,9 h,1.9 g
same,LIVER,9 h,9.4 g
same,A/G,9 h,1.5
same,ALP,9 h,926.6 IU/L
same,ALT,9 h,35.8 IU/L
same,AST,9 h,65.2 IU/L
same,BUN,9 h,12.2 mg/dL
same,CRE,9 h,0.3 mg/dL
same,Ca,9 h,10.6 mg/dL
same,Cl,9 h,102.8 meq/L
same,DBIL,9 h,0.086 mg/dL
same,GLC,9 h,148.4 mg/dL
same,IP,9 h,10.2 mg/dL
same,K,9 h,3.6 meq/L
same,LDH,9 h,133.6 IU/L
same,Na,9 h,141.6 meq/L
same,PL,9 h,149.2 mg/dL
same,RALB,9 h,3.5 g/dL
same,TBIL,9 h,0.1 mg/dL
same,TC,9 h,76.2 mg/dL
same,TG,9 h,58.6 mg/dL
same,TP,9 h,5.8 g/dL
same,gamma-GTP,9 h,1.8 IU/L
same,TERMINAL_BW,24 h,225 g
same,APTT,24 h,18.1 s
same,Bas,24 h,0.2%
same,Eos,24 h,1%
same,Fbg,24 h,220.2 mg/dL
same,Hb,24 h,12.9 g/dL
same,Ht,24 h,37.9%
same,Lym,24 h,82.6%
same,MCH,24 h,21.5 pg
same,MCHC,24 h,33.9%
same,MCV,24 h,63.5 fL
same,Mono,24 h,1.8%
same,Neu,24 h,14%
same,PT,24 h,12.5 s
same,Plat,24 h,119.5 x10_4/uL
same,RBC,24 h,597.4 x10_4/ul
same,Ret,24 h,6.6%
same,WBC,24 h,91.9 x10_2/uL
same,KIDNEY_L,24 h,1 g
same,KIDNEY_R,24 h,1 g
same,KIDNEY_TOTAL,24 h,2 g
same,LIVER,24 h,10.4 g
same,A/G,24 h,1.7
same,ALP,24 h,931.4 IU/L
same,ALT,24 h,36.2 IU/L
same,AST,24 h,65 IU/L
same,BUN,24 h,15.8 mg/dL
same,CRE,24 h,0.4 mg/dL
same,Ca,24 h,10.7 mg/dL
same,Cl,24 h,102.4 meq/L
same,DBIL,24 h,0.088 mg/dL
same,GLC,24 h,202 mg/dL
same,IP,24 h,8.3 mg/dL
same,K,24 h,3.5 meq/L
same,LDH,24 h,182.2 IU/L
same,Na,24 h,141.8 meq/L
same,PL,24 h,144.4 mg/dL
same,RALB,24 h,3.4 g/dL
same,TBIL,24 h,0.1 mg/dL
same,TC,24 h,79 mg/dL
same,TG,24 h,62.6 mg/dL
same,TP,24 h,5.4 g/dL
same,gamma-GTP,24 h,1.4 IU/L

# — ChEMBL document CHEMBL3885861, “Open TG-GATES”
